Square brackets hold non-standard residues; d marks the D form. Peptide text beside a SMILES is read from it. * marks the point of attachment. Phe(4-F) = N[C@@H](Cc1ccc(F)cc1)C(=O)O; hArg = N=C(N)NCCCC[C@H](N)C(=O)O; Cha = N[C@@H](CC1CCCCC1)C(=O)O; X1 = CC(=O)C(Cc1ccccc1)N*

The target of the assay is Prothrombin (Homo sapiens, UniProt P00734).
A word on the Ki: it is a dissociation constant, usually derived from enzyme kinetics or from competition with a known ligand. Read a low Ki as tighter binding. `CC(=O)O[C@]1(C(C)=O)CC[C@H]2[C@@H]3C[C@H](C)C4=CC(=O)CC[C@]4(C)C3CC[C@@]21C` (some centres undefined) came in with a Ki above 10 µM. `CSCC[C@H](NC(=O)[C@H](CC(C)C)NC(=O)CNC(=O)[C@H](Cc1ccccc1)NC(=O)[C@H](Cc1ccccc1)NC(=O)[C@H](CCC(N)=O)NC(=O)[C@H](CCC(N)=O)NC(=O)[C@@H]1CCCN1C(=O)[C@H](CCCCN)NC(=O)[C@@H]1CCCN1C(=O)[C@@H](N)CCCN=C(N)N)C(N)=O` [Arg-Pro-Lys-Pro-Gln-Gln-Phe-Phe-Gly-Leu-Met NH2] registered a Ki above 10 µM. In turn, `NC(N)=NCCCC(N)C(=O)N1CCCC1C(=O)N1CCCC1C(=O)NCC(=O)NC(Cc1ccccc1)C(=O)NC(CO)C(=O)N1CCCC1C(=O)NC(Cc1ccccc1)C(=O)O` (centres undefined) [CAS_58-82-2] had an inhibitory constant (Ki) above 10 µM. `CCC(C)C(NC(=O)C(CO)NC(=O)C(CC(N)=O)NC(=O)C(CC(C)C)NC(=O)C(Cc1ccc(O)cc1)NC(=O)C(CCCCN)NC(=O)C(CCCCN)NC(=O)C(NC(=O)C(C)NC(=O)C(CCSC)NC(=O)C(CCC(N)=O)NC(=O)C(CCCCN)NC(=O)C(CCCN=C(N)N)NC(=O)C(CC(C)C)NC(=O)C(CCCN=C(N)N)NC(=O)C(NC(=O)C(Cc1ccc(O)cc1)NC(=O)C(CC(N)=O)NC(=O)C(CC(=O)O)NC(=O)C(NC(=O)C(Cc1ccccc1)NC(=O)C(NC(=O)C(C)NC(=O)C(CC(=O)O)NC(=O)C(CO)NC(=O)C(N)Cc1cnc[nH]1)C(C)C)C(C)O)C(C)O)C(C)C)C(=O)NC(CC(C)C)C(=O)NC(CC(N)=O)C(=O)O` (centres undefined) [CAS_37221-79-7] had an inhibition constant Ki above 10 µM. With `CC(C)C[C@H](NC(=O)[C@H](CC(C)C)NC(=O)[C@H](Cc1ccccc1)NC(=O)[C@@H](N)CO)C(=O)N[C@@H](CCCN=C(N)N)C(=O)N[C@@H](CC(N)=O)C(N)=O` [CAS_141923-40-2], the affinity corresponds to a Ki of 0.168 µM. Consider `CC(C)C[C@H](NC(=O)CNC(=O)[C@H](CC(N)=O)NC(=O)[C@H](CCCCN)NC(=O)[C@H](CC(=O)O)NC(=O)[C@H](CO)NC(=O)[C@H](Cc1ccccc1)NC(=O)[C@H](CO)NC(=O)[C@H](CCCNC(=N)N)NC(=O)[C@H](Cc1cnc[nH]1)NC(=O)[C@H](CC(N)=O)NC(=O)CNC(=O)[C@@H](NC(=O)[C@H](C)NC(=O)[C@H](Cc1cnc[nH]1)NC(=O)[C@@H]1CCCN1C(=O)CNC(=O)[C@H](CC(C)C)NC(=O)[C@H](CC(C)C)NC(=O)[C@H](Cc1ccc(O)cc1)NC(=O)CNC(=O)[C@H](C)NC(=O)[C@H](CO)NC(=O)[C@H](CC(N)=O)NC(=O)[C@H](CC(C)C)NC(=O)[C@@H](NC(=O)[C@H](Cc1c[nH]c2ccccc12)NC(=O)CN)[C@@H](C)O)C(C)C)C(=O)N[C@H](C(=O)N[C@@H](CO)C(=O)O)[C@@H](C)O` [Galanin, Human], for which the inhibitory constant (Ki) is above 10 µM. On to `C[C@H](N)C(=O)N[C@@H](Cc1ccc(F)cc1)C(=O)N[C@@H](CCCN=C(N)N)C(=O)N[C@@H](CC1CCCCC1)C(=O)N[C@@H](CCCCN=C(N)N)C(=O)N[C@@H](Cc1ccccc1)C(N)=O` [L-Ala-4-Fluoro-L-Phe-L-Arg-3-cyclohexyl-L-Ala-N-amidino-L-Lys-L-Phe-NH2] (H-A[Phe(4-F)]R[Cha][hArg]F-NH2), for which affinity was put at a Ki of 0.024 µM.

`CCC(C)C(NC(=O)C(Cc1ccc(O)cc1)NC(=O)C(NC(=O)C(CCCN=C(N)N)NC(=O)C(N)CC(=O)O)C(C)C)C(=O)NC(Cc1cnc[nH]1)C(=O)NC(Cc1cnc[nH]1)C(=O)N1CCCC1C(=O)NC(Cc1ccccc1)C(C)=O` (centres undefined) [NSC_439662] (H-DRVYIHHP-X1; configuration not given here) came in with a Ki above 10 µM. In turn, `CSCCC(NC(=O)C(CC(C)C)NC(=O)CNC(=O)C(NC(=O)C(Cc1ccccc1)NC(=O)C(CO)NC(=O)C(CC(=O)O)NC(=O)C(NC(=O)C(CCCCN)NC(=O)C(N)Cc1cnc[nH]1)C(C)O)C(C)C)C(N)=O` (stereo not drawn) [Neurokinin alpha] gave a Ki above 10 µM.

As for `CC(C)C[C@H](NC(=O)[C@H](CC(C)C)NC(=O)[C@H](Cc1ccccc1)NC(=O)[C@@H](N)CO)C(=O)N[C@@H](CCCN=C(N)N)C(=O)O` [SFLLR-OH], the Ki is above 10 µM. Take `CC(C)C[C@H](NC(=O)[C@H](CC(C)C)NC(=O)[C@H](Cc1ccccc1)NC(=O)[C@@H](N)CO)C(=O)N[C@@H](CCCN=C(N)N)C(=O)N[C@@H](CC(N)=O)C(=O)O` [SFLLRN-OH]: the affinity corresponds to a Ki of 0.54 µM. `CC(C)CC(NC(=O)C(Cc1ccccc1)NC(=O)C(N)CO)C(=O)NC(CC(C)C)C(=O)NC(CCCN=C(N)N)C(=O)NC(CC(N)=O)C(=O)N1CCCC1C(=O)NC(CC(N)=O)C(=O)NC(CC(=O)O)C(=O)NC(CCCCN)C(=O)NC(Cc1ccc(O)cc1)C(=O)NC(CCC(=O)O)C(=O)N1CCCC1C(=O)NC(Cc1ccccc1)C(=O)O` (centres undefined) [SFLLRNPNDKYEPF-OH] (H-SFLLRNPNDKYEPF-OH; configuration not given here): the Ki stood at 1.1 µM. Under H-FSLLRN-NH2 [FSLLRN-NH2] stands above 10 µM; under H-SLIGKV-NH2 [CAS_190383-13-2], above 10 µM.

(Values after BindingDB's records for doi:10.1124/mol.51.2.350 (Schering-Plough Research Institute, 1997).)
